Assay results from US11098043B2, “Certain imidazopyridines as cyclic AMP response element binding (CREB) binding protein (CBP) inhibitors and uses thereof” (University of Massachusetts, priority 2017, dated 2021).

Assays:
CBP bromodomain = molecular target: T1, CBP bromodomain (Homo sapiens, UniProt Q92793); assay: AlphaScreen in vitro binding assay with CBP; conditions: for IC50: AlphaScreen, isolated CBP bromodomain, means of at least two determinations; for Selectivity Value [BRD4(1) IC50 (μM)/CBP IC50 (μM)]: ratio BRD4(1) IC50 / CBP IC50
T1 construct: docked complex of Compound 21 with CBP bromodomain
T1 sequence (Q92793 1085-1192 limits assumed): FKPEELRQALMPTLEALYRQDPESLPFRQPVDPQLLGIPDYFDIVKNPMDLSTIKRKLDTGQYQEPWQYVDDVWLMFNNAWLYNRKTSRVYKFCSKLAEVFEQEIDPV
Protocol: (§1) To determine the binding selectivity of compounds provided, AlphaScreen in vitro binding assays were performed with either CBP or BRD4.
(§2) Assays were performed with minor modifications from the manufacturer's protocol (Perkin Elmer, USA). All reagents were diluted in AlphaScreen™ buffer (50 mM HEPES, 150 mM NaCl, 0.01% v/v Tween-20, 0.1% w/v BSA, pH 7.4). After addition of Alpha beads to master solutions, all subsequent steps were performed under low light conditions. A 2× solution of components with final concentrations of His-BRD4(1) at 20 nM or His-CBP at 50 nM, Ni-coated Acceptor bead at 10 μg/ml, and biotinylated-JQ1 at 10 nM or biotinylated peptide at 100 nM was added in 10 μL to 384-well plates (AlphaPlate-384, PerkinElmer) using an EL406 liquid handler (Biotek, USA). Plates were spun down at 1000 rpm. A 10-point 1: √{square root over (sqrt(10))} serial dilution of compounds in DMSO was prepared at 200× the final concentration. 100 nL of compound from these stock plates were added by pin transfer using a Janus Workstation (PerkinElmer). A 2× solution of streptavidin-coated donor beads with a final concentration of 10 μg/ml was added in a 10 μL volume. The plates were spun down again at 1000 rpm and sealed with foil to prevent light exposure and evaporation. The plates were then incubated at room temperature for 1 hour and read on an Envision 2104 (PerkinElmer) using the manufacturer's protocol. IC50 values were calculated using a 4-parameter logistic curve in Prism 6 (GraphPad Software, USA) after normalization to DMSO-treated negative control wells.

BRD4(1) bromodomain = molecular target: T2, BRD4(1) bromodomain (Homo sapiens, UniProt O60885); assay: AlphaScreen in vitro binding assay with BRD4; conditions: isolated BRD4 bromodomain, means of at least two determinations
T2 construct: final concentrations of His-BRD4(1) at 20 nM
Protocol: as §1
as §2, with “A 2× solution of components with final concentrations of His-BRD4(1) at 20 nM or His-CBP at 50 nM, Ni-coated Acceptor bead at 10 μg/ml, and biotinylated-JQ1 at 10 nM or biotinylated peptide at 100 nM was added in 10 μL to 384-well plates (AlphaPlate-384, PerkinElmer) using an EL406 liquid handler (Biotek, USA).” left out

Row | SMILES | IC50 (CBP bromodomain) [µM] | Selectivity Value [BRD4(1) IC50 (μM)/CBP IC50 (μM)] (CBP bromodomain) | IC50 (BRD4(1) bromodomain) [µM]
1 | COc1ccc(CCc2nc3cc(-c4c(C)noc4C)ccn3c2NC2CCCCC2)cc1OC [Compound 33] | 0.759 | 8 | 6.22
2 | COc1ccc(CCc2nc3cc(-c4c(C)noc4C)ccn3c2NC(C)C)cc1OC [Compound 34] | 3.52 | 6 | 22.6
3 | Cc1noc(C)c1-c1ccn2c(NC3CCCCC3)c(CCc3ccc(OC(C)C)cc3)nc2c1 [Compound 36] | 0.737 | 11 | 8.18
4 | COc1ccc(CCc2nc3cc(-c4c(C)noc4C)ccn3c2N[C@H](C)c2ccccc2)cc1 [Compound 37] | 1.57 | 7 | 11
